20 compounds from patent publication US20240262815A1, “HETEROARYL DERIVATIVE, METHOD FOR PREPARING SAME, AND PHARMACEUTICAL COMPOSITION COMPRISING SAME AS ACTIVE INGREDIENT” (VORONOI INC., priority 2021, published 2024) can be followed below.

One experiment deals with BT-474 cancer cells. Briefly: Inhibitory activity against proliferation of BT-474 cancer cells (CellTiter-Glo). The class given is cell-based. The settings on record: Homo sapiens, BT-474 ErbB2-overexpressing cancer cells, 120 hours after treatment. How it is done: To evaluate the inhibitory activity of a compound according to the present invention against the proliferation of ErbB2-overexpressing cancer cells, the following experiment were performed.
10% FBS-added McCOY'S 5A was used for SK-BR-3 cancer cells. 20% FBS-added RPMI-1640 was used for BT-474 cancer cells. Transduced Ba/F3 cells were cultured in a RPMI-1640 medium to which 1 μg/ml puromycin (Invitrogen) was added.
48 hours before compound treatment, each type of the SK-BR-3 and BT-474 cells were seeded at 5,000 cells/well in a white clear bottom 96 well plate (Corning). The compound was diluted in dimethyl sulfoxide (SK-BR-3: 3-fold dilution, a total of 12 concentrations, BT-474: […], a total of 12 concentrations) and injected at 1 μl to have the final concentration of 0.2 nM to 5 μM. As for measurement of live cells, 120 hours after treatment with the compound, a CellTiter-Glo luminescent cell-viability reagent (Promega) was used to store the cells at room temperature for 10 minutes, followed by measurement of luminescence using a reader (SynergyNeo, Biotek). Each test was repeated three times.
The result values were calculated as a cell growth rate (%) compared to the control group. A graph was plotted using the GraphPad Prism version 8.3.0 program, and GI50 values were calculated.

A further experiment has as its system SK-BR-3 cancer cells. As to the kind of experiment: Inhibitory activity against proliferation of SK-BR-3 cancer cells (CellTiter-Glo). The format is cell-based. The settings on record: Homo sapiens, SK-BR-3, 120 h, ErbB2-overexpressing SK-BR-3 cells, 120 hours after treatment. In a few lines:
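Cells seeded 48 h before dosing (SK-BR-3 in McCOY'S 5A + 10% FBS; BT-474 in RPMI-1640 + 20% FBS), then exposed 120 h to 12 concentrations, 0.2 nM-5 μM final. Viability by CellTiter-Glo luminescence; GI50 from growth rate vs control, triplicate runs.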
Background: Cellular ATP, detected with luciferase, serves as a proxy for viable cell number.

The structures appear in SMILES notation.

A word on the GI50: it is the concentration at which growth is held to half of that of the control. For the compound `C=CC(=O)Nc1cc(Nc2cc(N3OCC[C@@H]3c3cccc(-c4ccccc4)c3)ncn2)c(OC)cc1N(C)CCN(C)C` [Example 173, (R)-N-(5-((6-(3-([1,1′-biphenyl]-3-yl)isoxazolidin-2-yl)pyrimidin-4-yl)amino)-2-((2-(dimethylamino)-ethyl)(methyl)-amino)-4-methoxy-phenyl)acrylamide], the GI50 with BT-474 cancer cells and with SK-BR-3 cancer cells was < 50 nM in each case.
Regarding `C=CCN1CCN(c2cc(OC)c(Nc3cc(N4OCC[C@@H]4c4cccc(-c5ccccc5)c4)ncn3)cc2NC(=O)C=C)CC1` [Example 174, (R)-N-(5-((6-(3-([1,1′-biphenyl]-3-yl)isoxazolidin-2-yl)pyrimidin-4-yl)amino)-2-(4-allylpiperazin-1-yl)-4-methoxy-phenyl)acrylamide], the GI50 with BT-474 cancer cells and with SK-BR-3 cancer cells was < 50 nM each time.
For the compound `C=CC(=O)Nc1cc(Nc2cc(N3OCC[C@@H]3c3cccc(-c4ccccc4)c3)ncn2)c(OC)cc1N1CCO[C@@H](C)C1` [Example 175, N-(5-((6-((R)-3-([1,1′-biphenyl]-3-yl)isoxazolidin-2-yl)pyrimidin-4-yl)-amino)-4-methoxy-2-((S)-2-methyl-morpholino)phen-yl)acrylamide], the GI50 in the experiment on BT-474 cancer cells and in the experiment on SK-BR-3 cancer cells was < 50 nM throughout.
In the case of `C=CC(=O)Nc1cc(Nc2cc(N3OCC[C@@H]3c3cccc(-c4ccccc4)c3)ncn2)c(OC)cc1N1CCO[C@H](C)C1` [Example 176, N-(5-((6-((R)-3-([1,1′-biphenyl]-3-yl)isoxazolidin-2-yl)pyrimidin-4-yl)-amino)-4-methoxy-2-((R)-2-methyl-morpholino)phen-yl)acrylamide], the GI50 in the experiment on BT-474 cancer cells and in the experiment on SK-BR-3 cancer cells was < 50 nM in each case.
For the compound `C=CC(=O)Nc1cc(Nc2cc(N3OCCC3c3cccc(-c4cnc5ccnn5c4)c3)ncn2)c(OC)cc1N1CCN(C)CC1` (stereo not shown) [Example 201, N-(4-methoxy-2-(4-methylpiper-azin-1-yl)-5-((6-(3-(3-(pyrazolo-[1,5-a]pyrimidin-6-yl)phenyl)-isoxazolidin-2-yl)-pyrimidin-4-yl)-amino)phenyl)-acrylamide], the GI50 in the experiment on BT-474 cancer cells and with SK-BR-3 cancer cells was < 50 nM each time.
In the case of `C=CC(=O)Nc1cc(Nc2cc(N3OCCC3c3cccc(-c4ccc(C)s4)c3)ncn2)c(OC)cc1N(C)CCN(C)C` (stereo not shown) [Example 213, N-(2-((2-(dimeth-ylamino)ethyl)-(methyl)amino)-4-methoxy-5-((6-(3-(3-(5-methylthio-phen-2-yl)phenyl)-isoxazolidin-2-yl)-pyrimidin-4-yl)-amino)phenyl)-acrylamide], the GI50 in the experiment on BT-474 cancer cells and with SK-BR-3 cancer cells was 50 to 500 nM in each case.
In the case of `C=CC(=O)Nc1cc(Nc2cc(N3OCC[C@@H]3c3cccc(-c4ccccc4)c3)ncn2)c(OC)cc1N1CCN(CC)CC1` [Example 216, (R)-N-(5-((6-(3-([1,1′-biphenyl]-3-yl)isoxazolidin-2-yl)pyrimidin-4-yl)-amino)-2-(4-ethyl-piperazin-1-yl)-4-methoxyphenyl)-acrylamide], the GI50 with BT-474 cancer cells and in the experiment with SK-BR-3 cancer cells was < 50 nM each time.
In the case of `C=CC(=O)Nc1cc(Nc2cc(N3OCC[C@@H]3c3cc(F)cc(Oc4ccn(C)n4)c3)ncn2)c(OC)cc1N1CCC(N2CCN(C3CC3)CC2)CC1` [Example 219, (R)-N-(2-(4-(4-cyclopropylpiper-azin-1-yl)piper-idin-1-yl)-5-((6-(3-(3-fluoro-5-((1-methyl-1H-pyr-azol-3-yl)oxy)-phenyl)isoxazol-idin-2-yl)pyrim-idin-4-yl)amino)-4-methoxyphen-yl)acrylamide], the 50% growth inhibitory concentration (GI50) with BT-474 cancer cells and in the experiment on SK-BR-3 cancer cells was < 50 nM in each case.
For `C=CC(=O)Nc1cc(Nc2cc(N3OCC[C@@H]3c3cc(F)cc(Oc4cccc(F)c4)c3)ncn2)c(OC)cc1N1CCN(C)[C@H](C)C1` [Example 221, N-(2-((R)-3,4-dimethylpiper-azin-1-yl)-5-((6-((R)-3-(3-fluoro-5-(3-fluorophen-oxy)phenyl)-isox-azolidin-2-yl)pyr-imidin-4-yl)-amino)-4-methoxy-phenyl)acrylamide], the GI50 in the experiment on BT-474 cancer cells and in the experiment with SK-BR-3 cancer cells was < 50 nM each time.
As to `C=CC(=O)Nc1cc(Nc2cc(N3OCC[C@@H]3c3cc(F)cc(Oc4cccc(F)c4)c3)ncn2)c(OC)cc1N1CCN(C)[C@@H](C)C1` [Example 223, N-(2-((S)-3,4-dimethylpiperazin-1-yl)-5-((6-((R)-3-(3-fluoro-5-(3-fluorophenoxy)-phenyl)isoxazol-idin-2-yl)pyrim-idin-4-yl)amino)-4-methoxyphen-yl)acrylamide], the concentration for 50% growth inhibition (GI50) in the experiment with BT-474 cancer cells and in the experiment with SK-BR-3 cancer cells was < 50 nM throughout.
Take `C=CC(=O)Nc1cc(Nc2cc(N3OCC[C@@H]3c3cc(F)cc(Oc4cccc(F)c4)c3)ncn2)c(OC)cc1N1CCC(N(C)C)CC1` [Example 224, (R)-N-(2-(4-(dimethylamino)-piperidin-1-yl)-5-((6-(3-(3-fluoro-5-(3-fluorophenoxy)-phenyl)isoxazol-idin-2-yl)pyrim-idin-4-yl)amino)-4-methoxyphen-yl)acrylamide]: the concentration for 50% growth inhibition (GI50) in the experiment with BT-474 cancer cells and in the experiment on SK-BR-3 cancer cells was < 50 nM throughout.
Turning to `C=CC(=O)Nc1cc(Nc2cc(N3OCC[C@@H]3c3cccc(Oc4cc(F)cc(F)c4)c3)ncn2)c(OC)cc1N1CCN(C)CC1` [Example 225, (R)-N-(5-((6-(3-(3-(3,5-difluoro-phenoxy)phenyl)-isoxazolidin-2-yl)pyrimidin-4-yl)amino)-4-methoxy-2-(4-methylpiperazin-1-yl)phenyl)-acrylamide], the GI50 in the experiment with BT-474 cancer cells and with SK-BR-3 cancer cells was < 50 nM throughout.
Take `C=CC(=O)Nc1cc(Nc2cc(N3OCC[C@@H]3c3cccc(OCc4ccccc4)c3)ncn2)c(OC)cc1N(C)CCN(C)C` [Example 227, (R)-N-(5-((6-(3-(3-(benzyloxy)-phenyl)isoxazol-idin-2-yl)pyrim-idin-4-yl)amino)-2-((2-(dimethyl-amino)ethyl)-(methyl)amino)-4-methoxyphen-yl)acrylamide]: the concentration for 50% growth inhibition (GI50) with BT-474 cancer cells and in the experiment on SK-BR-3 cancer cells was < 50 nM in each case.
As to `C=CC(=O)Nc1cc(Nc2cc(N3OCC[C@@H]3c3cccc(OCc4cccc(F)c4)c3)ncn2)c(OC)cc1N(C)CCN(C)C` [Example 228, (R)-N-(2-((2-(dimethylamino)-ethyl)(methyl)-amino)-5-((6-(3-(3-((3-fluorobenz-yl)oxy)phenyl)-isoxazolidin-2-yl)-pyrimidin-4-yl)-amino)-4-methoxy-phenyl)acrylamide], the GI50 in the experiment with BT-474 cancer cells and with SK-BR-3 cancer cells was < 50 nM in each case.
Consider `C=CC(=O)Nc1cc(Nc2cc(N3OCC[C@@H]3c3cccc(-c4ccccc4)c3)ncn2)c(OC)cc1N1CCC(N2CCN(C3CC3)[C@@H](C)C2)CC1` [Example 231, N-(5-((6-((R)-3-([1,1′-biphenyl]-3-yl)isoxazolidin-2-yl)pyrimidin-4-yl)amino)-2-(4-((S)-4-cycloprop-yl-3-methylpiper-azin-1-yl)piperidin-1-yl)-4-methoxy-phenyl)acrylamide], for which the GI50 with BT-474 cancer cells and in the experiment on SK-BR-3 cancer cells was < 50 nM in each case.
Regarding `C=CC(=O)Nc1cc(Nc2cc(N3OCCC3c3cccc(-c4cnn(C)c4)c3)ncn2)c(OC)cc1N(C)CCN(C)C` (stereo not shown) [Example 233, N-(2-((2-(dimeth-ylamino)ethyl)-(methyl)amino)-4-methoxy-5-((6-(3-(3-(1-methyl-1H-pyrazol-4-yl)phen-yl)isoxazolidin-2-yl)pyrimidin-4-yl)amino)phenyl)-acrylamide], the GI50 in the experiment with BT-474 cancer cells and in the experiment on SK-BR-3 cancer cells was < 50 nM throughout.
For the compound `C=CC(=O)Nc1cc(Nc2cc(N3OCC[C@@H]3c3cccc(-c4cccc(F)c4)c3)ncn2)c(OC)cc1N1CCN(C)CC1` [Example 242, (R)-N-(5-((6-(3-(3′-fluoro-[1,1′-biphen-yl]-3-yl)isoxazol-idin-2-yl)pyrim-idin-4-yl)amino)-4-methoxy-2-(4-methylpiperazin-1-yl)phenyl)-acrylamide], the GI50 with BT-474 cancer cells and in the experiment with SK-BR-3 cancer cells was < 50 nM in each case.
Consider `C=CC(=O)Nc1cc(Nc2cc(N3OCC[C@@H]3c3cccc(-c4cccc(F)c4)c3)ncn2)c(OC)cc1N1CC2(C1)CN(C1COC1)C2` [Example 341, (R)-N-(5-((6-(3-(3′-fluoro-[1,1′-biphenyl]-3-yl)-isoxazolidin-2-yl)-pyrimidin-4-yl)-amino)-4-methoxy-2-(6-(oxetan-3-yl)-2,6-diazaspiro-[3.3]heptan-2-yl)-phenyl)acrylamide], for which the GI50 in the experiment on BT-474 cancer cells is < 50 nM.
As for `C=CC(=O)Nc1cc(Nc2cc(N3OCC[C@@H]3c3cccc(-c4cccc(C(=O)N(C)C)c4)c3)ncn2)c(OC)cc1N1CCN(C)CC1` [Example 342, (R)-3′-(2-(6-((5-acrylamido-2-methoxy-4-(4-methylpiperazin-1-yl)phenyl)-amino)pyrimidin-4-yl)isoxazolidin-3-yl)-N,N-dimeth-yl-[1,1′-biphenyl]-3-carboxamide], the GI50 in the experiment on BT-474 cancer cells is < 50 nM.
Still for that read-out and setting: the value for `C=CC(=O)Nc1cc(Nc2cc(N3OCC[C@@H]3c3cccc(-c4cccc(F)c4)c3)ncn2)c(OC)cc1N1CCC2(CC1)CN(C)C2` [Example 343, (R)-N-(5-((6-(3-(3′-fluoro-[1,1′-biphenyl]-3-yl)-isoxazolidin-2-yl)-pyrimidin-4-yl)-amino)-4-methoxy-2-(2-methyl-2,7-diazaspiro[3.5]-nonan-7-yl)phen-yl)acrylamide] was < 50 nM.
